Reference: patent US7098204B2 (C.N.R.S., priority 1999, dated 2006)
≈ marks a conversion by molar mass, not a printed value.

Legend:
[1] = molecular target: T1, erk1 (Homo sapiens, UniProt P27361); test: erk1 kinase assay; assay type: biochemical; conditions: 15 μM ATP
T1 construct: His
Description: Blank values were subtracted and activities calculated as pmoles of phosphate incorporated for a 10 min. incubation (usually expressed in % of the maximal activity, i.e. without inhibitors). Controls were performed with appropriate dilutions of Me2SO. In some cases phosphorylation of the substrate was assessed by autoradiography after SDS-PAGE. […] ATP (3,000 Ci/mmol; 1 mCi/ml) in a final volume of 30 μl. After 10 min. incubation at 30° C., 25 μl aliquots of supernatant were spotted onto 2.5×3 cm pieces of Whatman P81 phosphocellulose paper, and, 20 sec. later, the filters were washed five times (for at least 5 min. each time) in a solution of 10 ml phosphoric acid/liter of water. […] ATP (3,000 Ci/mmol; 1 mCi/ml) in a final volume of 30 μl. […] Its activity was assayed in buffer C as described for CDK1/cyclin B. • CDK2/cyclin A, CDK2/cyclin E, CDK3/cyclin E, CDK4/cyclin D1, CDK6/cyclin D2, His-tagged erk1 and erk2, protein kinase C isoforms, the catalytic subunit of cAMP-dependent protein kinase, cGMP-dependent protein kinase, Myosin light chain kinase, casein kinases 1 & 2, ASK-γ (a plant homologue of GSK-3), insulin receptor tyrosine kinase domain (CIRK-41), c-raf, MAPKK, c-jun N terminal kinase (obtained from Promega), c-src kinase and v-abl kinase were assayed as described [15].

[2] = system: HT29-18-C1 cells; test: HT29-18-C1 growth inhibition (cell counts); assay type: cell-based, human
Description: Cell culture and treatments. HT29-18-C1, a subclone of the human colon adenocarcinoma cell line HT29, was cultured in Dulbecco's modified Eagle's medium (Gibco-BRL) supplemented with 10% FCS, 2 mM L-glutamine (Eurobio) and […] gentamycin (Gibco-BRL) at 37° C., 10% CO2. Cells were synchronized by serum deprivation for 48 h. They were then released from growth arrest by the addition of 5% fetal calf serum (FCS). HD, prepared in DMSO, was added immediately to the medium, for 24 h and at final concentrations ranging from 0 to 80 μM. In some experiments HD was added 22 h after serum addition for an additional 24 h. In other experiments HD was added to unsynchronised cells. Cells were then washed and cultured in 5% FCS medium and counted or analysed by FACS at different times.
Cell counts and flow cytometric cell cycle analysis. Cell were counted with a hemocytometer. Cell cycle distribution was analysed by flow cytometry. The adherent cells (1.10^6) were trypsinised and fixed in cold 70% ethanol for 4 h. […] The stained cells were analysed on a FACScan cytofluorimeter using the cellFit Software program (Becton Dickinson Immunocytometry Systems).
HT29-18-C1 cells were synchronised in G1 by serum deprivation. […] Cell number was determined every 12 h for a 72 h period using a hemocytometer. […] Serum-treated cells (time 0) were exposed to various HD concentrations and counted after 24 h. […]

[3] = system: casein kinase 1; test: In vitro phosphorylation of presenilin-2-MBP by casein kinase 1; assay type: biochemical; conditions: presenilin-2-MBP substrate, autoradiography
Description: The large hydrophilic loop of presenilin-2 between transmembrane domains 6 and 7 was expressed in E. coli as a presseilin-2 loop—maltose-binding protein (MBP) fusion protein [25]. Following affinity chromatography purification presenilin-2-MBP was used as a substrate for CK1. After 30 min incubation in the presence of various HD concentrations, the kinase reaction was stopped by addition of Laemmli sample buffer. MBP-presenilin-2 was resolved by SDS-PAGE and its phosphorylation level visualised by autoradiography.

[4] = molecular target: protein kinase C β1 (Homo sapiens, UniProt P05771); test: protein kinase C β1 assay; assay type: biochemical; conditions: 15 μM ATP
Description: (§1) Kinases activities were assayed in Buffer A or C (unless otherwise stated), at 30° C., at a final ATP concentration of 15 μM. Blank values were subtracted and activities calculated as pmoles of phosphate incorporated for a 10 min. incubation (usually expressed in % of the maximal activity, i.e. without inhibitors). Controls were performed with appropriate dilutions of Me2SO. In some cases phosphorylation of the substrate was assessed by autoradiography after SDS-PAGE. IC50 values were estimated from the dose-response curves. • CDK1/cyclin B was extracted in homogenisation buffer from M phase starfish (Marthasterias glacialis) oocytes and purified by affinity chromatography on p9^CKShs1-Sepharose beads, from which it was eluted by free p9^CKShs1 as described. The kinase activity was assayed in buffer C, with 1 mg histone H1/ml, in the presence of 15 μM [γ-^32P] ATP (3,000 Ci/mmol; 1 mCi/ml) in a final volume of 30 μl. After 10 min. incubation at 30° C., 25 μl aliquots of supernatant were spotted onto 2.5×3 cm pieces of Whatman P81 phosphocellulose paper, and, 20 sec. later, the filters were washed five times (for at least 5 min. each time) in a solution of 10 ml phosphoric acid/liter of water. The wet filters were counted in the presence of 1 ml ACS (Amersham) scintillation fluid. • GSK-3β was either purified from rabbit muscle or expressed in and purified from insect Sf9 cells. […]

[5] = system: melanoma, SK-MEL-5; test: Human cancer cell line SK-MEL-5 proliferation; assay type: cell-based
[6] = molecular target: GSK-3β (Mus musculus, UniProt Q9WV60); test: MAP-1B phosphorylation by GSK-3 in cerebellar granule cells; assay type: cell-based, mice
Description: Cerebellar granule cells were isolated from newborn mice and purified according to the method of Hatten using Percoll gradients. Cells were plated onto dishes coated with poly-D-lysine (100 μg/ml) and laminin (50 μg/ml) and grown in serum-free medium for 1 day, the cultures were then treated with HD (1–100 μM) for 20 h. Cultures were fixed with 4% formaldehyde in PBS and stored in PBS at 4° C. Cells were permeabilised with 100% methanol and incubated with primary antibodies against GAP-43 and MAP-1B-P (SMI-31, Affiniti) overnight at 4° C. FITC and Texas Red conjugated secondary antibodies were used (Vector). For western blot analysis, cells were lysed in sample buffer and analysed by 8% SDS-PAGE. Proteins were transferred to nitrocellulose membranes and incubated with an antibody to MAP-1B-P (SMI-31) diluted in block solution (0.1% Tween-20, 3% dried skimmed milk in TBS) for 2 h at room temperature. HRP-conjugated secondary antibodies (Amersham) were used and proteins were visualised using the ECL system (Pierce). Blots were scanned using a flat bed scanner (UMAX Astra 1200S).

[7] = molecular target: protein kinase C δ (Homo sapiens, UniProt Q05655); test: protein kinase C δ assay; assay type: biochemical; conditions: 15 μM ATP
Description: as §1

Chain of GSK-3β (Q9WV60 whole entry): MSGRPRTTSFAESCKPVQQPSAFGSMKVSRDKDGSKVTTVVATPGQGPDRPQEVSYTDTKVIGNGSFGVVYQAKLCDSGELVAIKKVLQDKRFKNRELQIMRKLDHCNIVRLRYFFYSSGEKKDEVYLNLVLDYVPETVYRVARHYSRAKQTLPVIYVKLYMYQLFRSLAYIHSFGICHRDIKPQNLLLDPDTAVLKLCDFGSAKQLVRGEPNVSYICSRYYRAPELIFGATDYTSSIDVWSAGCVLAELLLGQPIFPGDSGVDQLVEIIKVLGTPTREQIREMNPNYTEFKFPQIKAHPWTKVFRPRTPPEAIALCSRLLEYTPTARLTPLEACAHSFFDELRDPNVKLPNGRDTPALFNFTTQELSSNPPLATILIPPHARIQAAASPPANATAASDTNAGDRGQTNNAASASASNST
Chain of protein kinase C β1 (P05771 whole entry): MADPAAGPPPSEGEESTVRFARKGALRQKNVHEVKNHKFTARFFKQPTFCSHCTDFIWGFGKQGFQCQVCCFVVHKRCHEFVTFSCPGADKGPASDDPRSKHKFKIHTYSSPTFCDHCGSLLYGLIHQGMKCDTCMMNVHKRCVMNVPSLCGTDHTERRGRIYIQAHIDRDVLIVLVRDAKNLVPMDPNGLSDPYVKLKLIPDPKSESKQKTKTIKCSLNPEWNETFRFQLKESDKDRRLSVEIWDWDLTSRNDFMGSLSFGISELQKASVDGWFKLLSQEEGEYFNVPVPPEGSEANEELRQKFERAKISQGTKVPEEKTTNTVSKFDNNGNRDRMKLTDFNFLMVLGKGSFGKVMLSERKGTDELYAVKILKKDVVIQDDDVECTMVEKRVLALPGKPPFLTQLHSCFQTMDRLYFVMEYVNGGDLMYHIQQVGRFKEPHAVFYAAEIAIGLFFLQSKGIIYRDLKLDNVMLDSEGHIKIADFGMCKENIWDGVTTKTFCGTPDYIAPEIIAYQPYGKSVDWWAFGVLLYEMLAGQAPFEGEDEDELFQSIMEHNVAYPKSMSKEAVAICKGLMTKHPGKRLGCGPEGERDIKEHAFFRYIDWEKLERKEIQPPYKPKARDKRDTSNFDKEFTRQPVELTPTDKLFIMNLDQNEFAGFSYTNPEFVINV
Chain of protein kinase C δ (Q05655 whole entry): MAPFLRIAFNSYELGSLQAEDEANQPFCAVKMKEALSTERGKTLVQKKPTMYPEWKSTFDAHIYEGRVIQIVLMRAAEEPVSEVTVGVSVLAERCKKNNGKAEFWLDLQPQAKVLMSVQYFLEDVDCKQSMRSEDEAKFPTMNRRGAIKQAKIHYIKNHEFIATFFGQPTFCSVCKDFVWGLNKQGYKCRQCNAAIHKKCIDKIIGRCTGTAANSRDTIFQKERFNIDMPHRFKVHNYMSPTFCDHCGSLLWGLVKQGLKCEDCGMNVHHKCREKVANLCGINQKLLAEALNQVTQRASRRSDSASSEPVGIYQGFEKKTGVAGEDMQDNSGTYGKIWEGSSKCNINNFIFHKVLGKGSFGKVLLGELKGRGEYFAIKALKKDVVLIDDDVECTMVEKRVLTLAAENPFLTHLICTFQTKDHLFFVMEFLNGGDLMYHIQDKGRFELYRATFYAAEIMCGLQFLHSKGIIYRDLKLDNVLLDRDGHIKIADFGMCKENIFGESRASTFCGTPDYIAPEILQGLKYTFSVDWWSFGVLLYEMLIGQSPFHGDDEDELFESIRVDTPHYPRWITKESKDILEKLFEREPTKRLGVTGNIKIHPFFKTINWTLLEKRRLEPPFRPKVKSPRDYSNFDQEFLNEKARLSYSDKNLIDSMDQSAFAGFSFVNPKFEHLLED
T1 sequence (P27361 whole entry, species assumed): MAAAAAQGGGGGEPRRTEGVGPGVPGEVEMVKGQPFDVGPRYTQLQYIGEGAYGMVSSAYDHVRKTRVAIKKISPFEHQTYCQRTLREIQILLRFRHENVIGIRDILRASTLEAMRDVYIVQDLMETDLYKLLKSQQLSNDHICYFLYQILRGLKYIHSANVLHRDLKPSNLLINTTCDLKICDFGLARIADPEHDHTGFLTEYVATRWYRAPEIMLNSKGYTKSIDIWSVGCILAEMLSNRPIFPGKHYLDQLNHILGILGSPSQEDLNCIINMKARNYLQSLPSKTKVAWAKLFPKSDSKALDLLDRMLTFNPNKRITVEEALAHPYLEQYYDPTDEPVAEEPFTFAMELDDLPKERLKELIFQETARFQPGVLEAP

Q: What does the source list for NC1=NC(=O)C(=C2CCNC(=O)c3[nH]c(Br)cc32)N1 [hymenialdisine, 4-(2-amino-4-oxo-2-imidazolin-5-ylidene)-2-bromo-4,5,6,7-tetrahydropyrrolo (2,3-c) azepine-8-one]?
A: IC50 [1]: 470 nM; growth of HT29-18-C1 (cell number) ([2]; 10 μM for 24 h, followed over 72 h): strong growth inhibition; IC50 ([2]; Homo sapiens, serum-treated cells counted after 24 h): 5000 nM; presenilin-2 phosphorylation by CK1 [3]: dose-dependent inhibition of presenilin-2 phosphorylation; IC50 [4]: 1200 nM; IC50 [5]: 5.7 µg/mL (≈ 17.6 µM); cell morphology and distribution of MAP-1B-P ([6]; 1 μM, 10 μM, 25 μM, 20 h): no noticeable effect; MAP-1B-P in axonal processes ([6]; 50 μM, 20 h): loss of MAP-1B-P from most of the axonal processes; MAP-1B-P in axonal processes ([6]; 100 μM, 20 h): loss of MAP-1B-P from processes; MAP-1B-P by Western blotting ([6]; increasing doses 1–100 μM): loss of MAP-1B-P in a dose-dependent manner; IC50 [7]: 1100 nM
